Test results published in PubChem BioAssay (NCI).
Several values for one entry are separate records, joined by “and”; a condition that tells them apart may be missing. Identical values can stand only once.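 A five-concentration, 48-hour dose response in 96-well plates underlies each endpoint, interpolated linearly between surrounding concentrations. GI50 = concentration required for 50% inhibition of growth. TGI: concentration producing complete growth inhibition.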

Assays:
Assay in all cases: inhibition of tumour cell growth, NCI panel, 48 h
MALME-3M melanoma = test system: MALME-3M melanoma
UACC-257 melanoma = test system: UACC-257 melanoma
UO-31 renal = test system: UO-31 renal
SNB-75 CNS = test system: SNB-75 CNS
A549 NSCLC = test system: A549 NSCLC
786-0 renal = test system: 786-0 renal
SK-OV-3 ovarian = test system: SK-OV-3 ovarian
SK-MEL-28 melanoma = test system: SK-MEL-28 melanoma
DU-145 prostate = test system: DU-145 prostate
PC-3 prostate = test system: PC-3 prostate

## S=c1[nH]c(=S)c2nnn(-c3ccccc3)c2[nH]1
MALME-3M melanoma
  TGI: > 100 µM
UACC-257 melanoma
  TGI: > 100 µM
UO-31 renal
  TGI: > 100 µM
SNB-75 CNS
  TGI: > 100 µM
A549 NSCLC
  TGI: > 100 µM
786-0 renal
  TGI: > 100 µM
SK-OV-3 ovarian
  TGI: > 100 µM
SK-MEL-28 melanoma
  TGI: > 100 µM

## N#CC(C(=O)C(=O)Nc1ccc(Cl)cc1)c1ccccc1 (configuration not stated)
MALME-3M melanoma
  TGI: > 100 µM
UACC-257 melanoma
  TGI: > 100 µM
UO-31 renal
  TGI: > 100 µM
SNB-75 CNS
  TGI: > 100 µM
A549 NSCLC
  TGI: > 100 µM
786-0 renal
  TGI: > 100 µM
SK-OV-3 ovarian
  TGI: > 100 µM
SK-MEL-28 melanoma
  TGI: > 100 µM

## COc1c[c]([Hg][O]C(C)=O)c(OC)c(NC(=O)CC(C)=O)[c]1[Hg][O]C(C)=O
MALME-3M melanoma
  GI50: 1.53 µM
  TGI: 3 µM
UACC-257 melanoma
  GI50: 2.73 µM
  TGI: 7.46 µM
UO-31 renal
  GI50: 19.2 µM
  TGI: 33.3 µM
SNB-75 CNS
  GI50: 14 µM
  TGI: 28 µM
A549 NSCLC
  GI50: 26 µM
  TGI: 45.9 µM
786-0 renal
  GI50: 2.48 µM
  TGI: 7.71 µM
SK-OV-3 ovarian
  GI50: 18.6 µM
  TGI: 32.7 µM
SK-MEL-28 melanoma
  GI50: 1.83 µM
  TGI: 3.61 µM

## O=C1OCC2C1C1c3ccccc3C(O)c3ccccc3C21 (configuration not stated)
MALME-3M melanoma
  TGI: > 100 µM
UACC-257 melanoma
  TGI: > 100 µM
UO-31 renal
  TGI: > 100 µM
SNB-75 CNS
  TGI: > 100 µM
A549 NSCLC
  TGI: > 100 µM
786-0 renal
  TGI: > 100 µM
SK-OV-3 ovarian
  TGI: > 100 µM
SK-MEL-28 melanoma
  TGI: > 100 µM

## COc1ccc(-c2coc3c4c(ccc3c2=O)OCO4)cc1OC
UACC-257 melanoma
  TGI: > 100 µM
UO-31 renal
  TGI: > 100 µM
SNB-75 CNS
  TGI: > 100 µM
DU-145 prostate
  TGI: > 100 µM
A549 NSCLC
  TGI: > 100 µM
786-0 renal
  TGI: > 100 µM
PC-3 prostate
  TGI: > 100 µM
SK-OV-3 ovarian
  TGI: 83.6 µM
SK-MEL-28 melanoma
  TGI: > 100 µM

## COc1ccc(CCNC(=O)c2ccc(NC3=C(Cl)C(=O)N(Cc4ccccc4)C3=O)cc2)cc1OC
UACC-257 melanoma
  GI50: 20.3 µM
  TGI: 48.6 µM
SNB-75 CNS
  GI50: 38.4 µM
  TGI: > 100 µM
DU-145 prostate
  GI50: 16.2 µM
  TGI: > 100 µM
A549 NSCLC
  GI50: 33.1 µM
  TGI: > 100 µM
786-0 renal
  GI50: 3.88 µM
  TGI: > 100 µM
PC-3 prostate
  GI50: 6.02 µM
  TGI: 27.8 µM
SK-OV-3 ovarian
  GI50: 35.8 µM
  TGI: > 100 µM
SK-MEL-28 melanoma
  GI50: 15.1 µM
  TGI: > 100 µM

## CC(=O)[O][Ga]([Br])[O]C(C)=O
MALME-3M melanoma
  GI50: > 100 µM
  TGI: > 100 µM
UACC-257 melanoma
  GI50: > 100 µM
  TGI: > 100 µM
UO-31 renal
  GI50: > 100 µM
  TGI: > 100 µM
SNB-75 CNS
  GI50: > 100 µM
  TGI: > 100 µM
A549 NSCLC
  GI50: > 100 µM
  TGI: > 100 µM
786-0 renal
  GI50: > 100 µM
  TGI: > 100 µM
SK-OV-3 ovarian
  GI50: > 100 µM
  TGI: > 100 µM
SK-MEL-28 melanoma
  GI50: > 100 µM
  TGI: > 100 µM

## COC(=O)[C@H]1C=C[C@@H](C)n2c(=O)c3cc4ccccc4cc3c(=O)n21
MALME-3M melanoma
  TGI: > 100 µM
UACC-257 melanoma
  TGI: > 100 µM
UO-31 renal
  TGI: > 100 µM
SNB-75 CNS
  TGI: > 100 µM
A549 NSCLC
  TGI: > 100 µM
786-0 renal
  TGI: > 100 µM
SK-OV-3 ovarian
  TGI: > 100 µM
SK-MEL-28 melanoma
  TGI: > 100 µM

## O=C(CSC1CCc2ccccc21)N/N=C/c1ccccc1O (configuration not stated)
MALME-3M melanoma
  GI50: 6.4 µM
  TGI: 42.3 µM
UO-31 renal
  GI50: 0.985 µM
  TGI: 17 µM
SNB-75 CNS
  GI50: 5.52 µM
  TGI: > 100 µM
DU-145 prostate
  GI50: 6.09 µM
  TGI: > 100 µM
A549 NSCLC
  GI50: 4.81 µM
  TGI: > 100 µM
786-0 renal
  GI50: 6.87 µM
  TGI: > 100 µM
PC-3 prostate
  GI50: 3.89 µM
  TGI: 75.8 µM
SK-OV-3 ovarian
  GI50: 11.5 µM
  TGI: > 100 µM
SK-MEL-28 melanoma
  GI50: 4.72 µM
  TGI: > 100 µM

## CC(C)N(CCn1c2c3ccccc3ccc2c2oc(=O)c3ccccc3c21)C(C)C
MALME-3M melanoma
  TGI: > 100 µM
UACC-257 melanoma
  TGI: > 100 µM
UO-31 renal
  TGI: > 100 µM
SNB-75 CNS
  TGI: 75.9 µM
A549 NSCLC
  TGI: > 100 µM
786-0 renal
  TGI: > 100 µM
SK-OV-3 ovarian
  TGI: > 100 µM
SK-MEL-28 melanoma
  TGI: > 100 µM

## Cc1nc([N+](=O)[O-])cn1CC(=N)N
MALME-3M melanoma
  TGI: > 100 µM
UACC-257 melanoma
  TGI: > 100 µM
UO-31 renal
  TGI: > 100 µM
SNB-75 CNS
  TGI: > 100 µM
A549 NSCLC
  TGI: > 100 µM
786-0 renal
  TGI: > 100 µM
SK-MEL-28 melanoma
  TGI: > 100 µM

## Cc1ccc(NC(=O)CSc2nnc(-c3ccc(N=Cc4ccc(Cl)cc4)cc3)o2)cc1
MALME-3M melanoma
  TGI: > 100 µM
UACC-257 melanoma
  TGI: > 100 µM
UO-31 renal
  TGI: > 100 µM
SNB-75 CNS
  TGI: > 100 µM
A549 NSCLC
  TGI: > 100 µM
786-0 renal
  TGI: > 100 µM
SK-OV-3 ovarian
  TGI: > 100 µM
SK-MEL-28 melanoma
  TGI: > 100 µM

## CCCN1CN(C(C(=O)N[C@@H]2C(=O)N3C2SC(C)(C)C3C(=O)O)c2ccc(O)cc2)CSC1=S (some centres not stated)
MALME-3M melanoma
  TGI: > 100 µM
UACC-257 melanoma
  TGI: > 100 µM
UO-31 renal
  TGI: > 100 µM
SNB-75 CNS
  TGI: > 100 µM
786-0 renal
  TGI: > 100 µM
SK-OV-3 ovarian
  TGI: > 100 µM
SK-MEL-28 melanoma
  TGI: > 100 µM

## Cc1cc(S(=O)(=O)O)c(NC(=O)C(=O)Cc2cc(=O)oc3cc(O)ccc23)cc1Cl
MALME-3M melanoma
  TGI: > 100 µM
UACC-257 melanoma
  TGI: > 100 µM
UO-31 renal
  TGI: > 100 µM
SNB-75 CNS
  TGI: > 100 µM
A549 NSCLC
  TGI: > 100 µM
786-0 renal
  TGI: > 100 µM
SK-OV-3 ovarian
  TGI: > 100 µM
SK-MEL-28 melanoma
  TGI: > 100 µM

## O=C1c2ccccc2-c2c1c1ccccc1c(=O)n2CCCCl
UACC-257 melanoma
  GI50: 12.6 µM
  TGI: 76.5 µM
UO-31 renal
  GI50: 6.47 µM
  TGI: 69.2 µM
SNB-75 CNS
  GI50: 8.4 µM
  TGI: 36.6 µM
DU-145 prostate
  GI50: 6.22 µM
  TGI: > 100 µM
A549 NSCLC
  GI50: 3.23 µM
  TGI: 16 µM
786-0 renal
  GI50: 4.86 µM
  TGI: 18.2 µM
PC-3 prostate
  GI50: 24.9 µM
  TGI: > 100 µM
SK-OV-3 ovarian
  GI50: 19.1 µM
  TGI: 62.2 µM
SK-MEL-28 melanoma
  GI50: > 100 µM
  TGI: > 100 µM

## C/C(CC(=O)Nc1cccc(Cl)c1C)=N\NC(=O)c1ccncc1
MALME-3M melanoma
  TGI: > 100 µM
UACC-257 melanoma
  TGI: > 100 µM
UO-31 renal
  TGI: > 100 µM
SNB-75 CNS
  TGI: > 100 µM
A549 NSCLC
  TGI: > 100 µM
786-0 renal
  TGI: > 100 µM
SK-OV-3 ovarian
  TGI: > 100 µM
SK-MEL-28 melanoma
  TGI: > 100 µM

## Cc1ccc(C)c(N=C2NC(=O)C(CC(=O)Nc3ccc(Cl)cc3Cl)S2)c1 (configuration not stated)
MALME-3M melanoma
  TGI: > 100 µM
UACC-257 melanoma
  TGI: > 100 µM
UO-31 renal
  TGI: > 100 µM
SNB-75 CNS
  TGI: > 100 µM
A549 NSCLC
  TGI: > 100 µM
786-0 renal
  TGI: > 100 µM
SK-OV-3 ovarian
  TGI: > 100 µM
SK-MEL-28 melanoma
  TGI: > 100 µM

## CC(C)C(=O)NS(=O)(=O)c1ccccc1
MALME-3M melanoma
  TGI: > 100 µM
UACC-257 melanoma
  TGI: > 100 µM
UO-31 renal
  TGI: > 100 µM
SNB-75 CNS
  TGI: > 100 µM
A549 NSCLC
  TGI: > 100 µM
786-0 renal
  TGI: > 100 µM
SK-OV-3 ovarian
  TGI: > 100 µM
SK-MEL-28 melanoma
  TGI: > 100 µM

## COC(=O)[C@@H](C)C[C@H](Cc1ccccc1)NC(=O)c1csc([C@@H](C[C@H](C(C)C)N(C)C(=O)[C@@H](NC(=O)[C@H]2CCCCN2C)C2CCCCC2)OC(C)=O)n1
UO-31 renal
  GI50: 0.00684 µM and 0.0415 µM
  TGI: 7.76 µM
SNB-75 CNS
  GI50: 0.00103 µM and 0.0025 µM
  TGI: 22.2 µM
DU-145 prostate
  GI50: 0.000291 µM and 0.0025 µM
A549 NSCLC
  GI50: 0.0022 µM and 0.0025 µM
  TGI: > 25 µM
786-0 renal
  GI50: 0.00175 µM and 0.0025 µM
  TGI: 2.74 µM
PC-3 prostate
  GI50: 0.000435 µM and 0.0025 µM
  TGI: 20.9 µM
SK-OV-3 ovarian
  GI50: 0.000567 µM and 0.0025 µM
  TGI: > 25 µM

## CC(=O)O[C@H]1CCC2[C@@H]3CCC4Nc5[nH]ncc5C[C@]4(C)C3CC[C@@]21C (some centres not stated)
MALME-3M melanoma
  TGI: > 100 µM
UACC-257 melanoma
  TGI: 72.4 µM
UO-31 renal
  TGI: > 100 µM
SNB-75 CNS
  TGI: > 100 µM
A549 NSCLC
  TGI: > 100 µM
786-0 renal
  TGI: > 100 µM
SK-OV-3 ovarian
  TGI: > 100 µM
